Results reported in patent US20060258736A1, “DOSING REGIMEN” (Bristol-Myers Squibb Company, priority 2005, published 2006).
“Also recorded” adds a separate entry of the source.

Key:
Assay type in all cases: in vivo, human
[1] = system: advanced solid tumors refractory to standard therapy; assay: Phase I clinical trial, twice weekly oral dosing: tumor response (modified WHO criteria)
Experimental: Patients with histologically confirmed, advanced solid tumors refractory to standard therapy, ECOG performance status 0-2, and adequate live, renal and bone marrow function without symptomatic brain metastasis or pre-existing neuropathy ≧grade 2 were eligible for the trial. The starting dose was 60 mg/m^2 with planned dose escalation of 20 mg/m^2 for each next cohort, consisting of at least 3 patients. Cohorts were expanded to 6 patients upon occurrence of a dose limiting toxicity (DLT). No premedication was required. Tumor response was evaluated according to the modified WHO criteria.

patients = assay: Neuropathy on the weekly treatment schedule (comparison, n = 48)
[2] = system: patients with advanced solid tumors; assay: Phase I clinical trial, twice weekly oral dosing: toxicity (NCI-CTC version 2.0) and dose limiting toxicities; details: for Neuropathy / neurotoxicity on twice weekly regimen compared to weekly schedule: twice weekly vs weekly
Experimental: Patients with histologically confirmed, advanced solid tumors refractory to standard therapy, ECOG performance status 0-2, and adequate live, renal and bone marrow function without symptomatic brain metastasis or pre-existing neuropathy ≧grade 2 were eligible for the trial.
The starting dose was 60 mg/m^2 with planned dose escalation of 20 mg/m^2 for each next cohort, consisting of at least 3 patients. Cohorts were expanded to 6 patients upon occurrence of a dose limiting toxicity (DLT). No premedication was required.
Toxicity was evaluated according to NCI-CTC (version 2.0).
Dose limiting toxicities (DLTs) were defined as any of the following drug related events occurring during the first cycle (first 4 weeks): grade 4 neutropenia>5 days, febrile neutropenia, grade 4 thrombocytopenia or grade 3 requiring platelet transfusion, any grade 3-4 non-hematological toxicity, QTc interval>500 msec, any significant arrhythmia, any dose reduction or omission due to toxicity.

[3] = any cycle, 19 patients, 60-100 mg/m^2 twice weekly

For `COC(=O)O[C@@]12CO[C@@H]1C[C@H](O)[C@@]1(C)C(=O)[C@H](OC(C)=O)C3=C(C)[C@@H](OC(=O)[C@H](O)[C@@H](NC(=O)OC(C)(C)C)C(C)(C)C)C[C@@](O)([C@@H](OC(=O)c4ccccc4)[C@H]21)C3(C)C` [Compound I, 3′-tert-butyl-3′-N-tert-butyloxycarbonyl-4-deacetyl-3′-dephenyl-3 ′-N-debenzoyl-4-O-methoxycarbonyl-paclitaxel], the Confirmed partial responses ([1]; 18 response-evaluable patients) was “three confirmed partial responses were observed in 18 response-evaluable patients”, the “Confirmed partial responses, no. of patients” value ([1]; of 3 prostate carcinoma patients) was 1 and the “Confirmed partial responses, no. of patients” value ([1]; of 6 response-evaluable NSCLC patients) was 2. The Antitumor activity ([1]; patients with NSCLC and prostate carcinoma) was “Promising activity has been observed”, the “Neuropathy (any cycle) Grade 1, no. of patients” value (patients; Weekly schedule (n = 48)) was 6 and the “Neuropathy (any cycle) Grade 1, percent of patients” value (patients; Weekly schedule (n = 48)) was 13%. For the same compound, the “Neuropathy (any cycle) Grade 2, no. of patients” value (patients; Weekly schedule (n = 48)) was 19, the “Neuropathy (any cycle) Grade 2, percent of patients” value (patients; Weekly schedule (n = 48)) was 40% and the “Neuropathy (any cycle) Grade 3, no. of patients” value (patients; Weekly schedule (n = 48)) was 6. For the same compound, the “Neuropathy (any cycle) Grade 3, percent of patients” value (patients; Weekly schedule (n = 48)) was 12%, the “Neuropathy (any cycle) Total, no. of patients” value (patients; Weekly schedule (n = 48)) was 31 and the “Neuropathy (any cycle) Total, percent of patients” value (patients; Weekly schedule (n = 48)) was 65%. The “Main and dose limiting toxicity” value (patients; weekly treatment regimen) was “peripheral neuropathy”, the “Dose limiting toxicities (DLTs)” value ([2]; 60 mg/m^2 twice weekly (n=3), first cycle) was “No dose limiting toxicities (DLTs) have been observed” and the “Dose limiting toxicities (DLTs), number” value ([2]; 80 mg/m^2 twice weekly (n=10), first cycle, a grade 3 fatigue and a dose-omission due to grade 2 peripheral neuropathy) was 2. The “Toxicity shortly after the first cycle (not meeting DLT criteria)” value ([2]; 100 mg/m^2 twice weekly) was “one patient developed grade 4 neutropenia, grade 3 fatigue and grade 3 hematuria”, the “Dose limiting toxicities (DLTs)” value ([2]; 100 mg/m^2 twice weekly, first three patients, first cycle) was “no DLTs were observed in the first three patients” and the “Neuropathy (any cycle) Grade 1, no. of patients” value ([2]; Twice weekly schedule (n = 19)) was 8. For the same compound, the “Neuropathy (any cycle) Grade 1, percent of patients” value ([2]; Twice weekly schedule (n = 19)) was 42%, the “Neuropathy (any cycle) Grade 2, no. of patients” value ([2]; Twice weekly schedule (n = 19)) was 2 and the “Neuropathy (any cycle) Grade 2, percent of patients” value ([2]; Twice weekly schedule (n = 19)) was 10%. For the same compound, the “Neuropathy (any cycle) Total, no. of patients” value ([2]; Twice weekly schedule (n = 19)) was 10, the “Neuropathy (any cycle) Total, percent of patients” value ([2]; Twice weekly schedule (n = 19)) was 52% and the “Drug-related side effects: Abdominal pain, Gr 1-2 (no. of patients)” value [2, 3] was 2. The “Drug-related side effects: Alopecia, Gr 1-2 (no. of patients)” value [2, 3] was 3, the “Drug-related side effects: Anorexia, Gr 1-2 (no. of patients)” value [2, 3] was 6 and the “Drug-related side effects: Diarrhea, Gr 1-2 (no. of patients)” value [2, 3] was 9. For the same compound, the “Drug-related side effects: Epistaxis, Gr 1-2 (no. of patients)” value [2, 3] was 7, the “Drug-related side effects: Fatigue, Gr 1-2 (no. of patients)” value [2, 3] was 7 and the “Drug-related side effects: Fatigue, Gr 3 (no. of patients)” value [2, 3] was 2. The “Drug-related side effects: Hematuria, Gr 3 (no. of patients)” value [2, 3] was 1, the “Drug-related side effects: Motor neuropathy, Gr 1-2 (no. of patients)” value [2, 3] was 1 and the “Drug-related side effects: Myalgia, Gr 1-2 (no. of patients)” value [2, 3] was 3. The “Drug-related side effects: Nausea, Gr 1-2 (no. of patients)” value [2, 3] was 3, the “Drug-related side effects: Neutropenia, Gr 1-2 (no. of patients)” value [2, 3] was 1 and the “Drug-related side effects: Neutropenia, Gr 4 (no. of patients)” value [2, 3] was 1. For the same compound, the “Drug-related side effects: Sens. neuropathy, Gr 1-2 (no. of patients)” value [2, 3] was 10, the “Drug-related side effects: Stomatitis, Gr 1-2 (no. of patients)” value [2, 3] was 1 and the “Drug-related side effects: Taste disturbance, Gr 1-2 (no. of patients)” value [2, 3] was 7. For the same compound, the “Drug-related side effects: Thrombocytopenia, Gr 1-2 (no. of patients)” value [2, 3] was 5, the “Drug-related side effects: Vomiting, Gr 1-2 (no. of patients)” value [2, 3] was 2 and the Tolerability ([2]; twice weekly treatment regimen) was “well tolerated”. For the same compound, the “Neuropathy / neurotoxicity on twice weekly regimen compared to weekly schedule” value [2] was “reduces peripheral neuropathy; also recorded: neuropathy appears to be less frequent and less severe; also recorded: Neuropathy appears to occur less frequently and to be less severe than on a weekly treatment schedule” and the “Neuropathy / neurotoxicity on twice weekly regimen compared to weekly schedule” value ([2]; listed as 3′-tert-butyl-3′-N-tert-butyloxycarbonyl-4-deacetyl-3′-dephenyl-3′-N-debenzoyl-4) was “may reduce the neurotoxicity of the drug”.
